Measurements taken from ChEMBL document CHEMBL1201862, “PubChem BioAssay data set” (2004).
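A five-concentration, 48-hour dose response in 96-well plates underlies each endpoint, interpolated linearly between surrounding concentrations. At the GI50, growth is halved.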 The source made the active and inactive calls. Rule as the data show it: active = GI50 up to about 1.1 µM and inactive = higher.

Assays:
Test in all cases: NCI-60 cell line screen, 48 h
786-0 = tested on: 786-0
A498 = tested on: A498
A549 = tested on: A549
ACHN = tested on: ACHN
CAKI-1 = tested on: CAKI-1
COLO 205 = tested on: COLO 205
DLD-1 = tested on: DLD-1
DMS-114 = tested on: DMS-114
DMS-273 = tested on: DMS-273
EKVX = tested on: EKVX
HCC 2998 = tested on: HCC 2998
HCT-116 = tested on: HCT-116
HCT-15 = tested on: HCT-15
HL-60 = tested on: HL-60
HOP-18 = tested on: HOP-18
HOP-62 = tested on: HOP-62
HOP-92 = tested on: HOP-92
HT-29 = tested on: HT-29
IGROV-1 = tested on: IGROV-1
K562 = tested on: K562
KM-20L2 = tested on: KM-20L2
KM12 = tested on: KM12
LOX IMVI = tested on: LOX IMVI
LXFL 529 = tested on: LXFL 529
M14 = tested on: M14
M19-MEL = tested on: M19-MEL
MOLT-4 = tested on: MOLT-4
Malme-3M = tested on: Malme-3M
NCI-H226 = tested on: NCI-H226
NCI-H23 = tested on: NCI-H23
NCI-H460 = tested on: NCI-H460
NCI-H522 = tested on: NCI-H522
OVCAR-3 = tested on: OVCAR-3
OVCAR-4 = tested on: OVCAR-4
OVCAR-5 = tested on: OVCAR-5
OVCAR-8 = tested on: OVCAR-8
RPMI-8226 = tested on: RPMI-8226
SF-268 = tested on: SF-268
SF-295 = tested on: SF-295
SF-539 = tested on: SF-539
SK-MEL-28 = tested on: SK-MEL-28
SK-MEL-2 = tested on: SK-MEL-2
SK-MEL-5 = tested on: SK-MEL-5
SK-OV-3 = tested on: SK-OV-3
SN12C = tested on: SN12C
SNB-19 = tested on: SNB-19
SNB-75 = tested on: SNB-75
SNB-78 = tested on: SNB-78
SR = tested on: SR
SW-620 = tested on: SW-620
TK-10 = tested on: TK-10
U-251 = tested on: U-251
UACC-257 = tested on: UACC-257
UACC-62 = tested on: UACC-62
UO-31 = tested on: UO-31
XF498 = tested on: XF498
CCRF-CEM = tested on: CCRF-CEM
RXF 631 = tested on: RXF 631
RXF 393 = tested on: RXF 393

Cc1ccc(C2(O)CC(c3ccc([N+](=O)[O-])o3)=NN2C(=O)COc2ccc(Cl)cc2)cc1 (stereo not drawn)
GI50 (786-0): 4.45 µM (inactive)
GI50 (A498): 4.98 µM (inactive)
GI50 (A549): 7.29 µM (inactive)
GI50 (ACHN): 4.99 µM (inactive)
GI50 (CAKI-1): 12.6 µM (inactive)
GI50 (COLO 205): 3.62 µM (inactive)
GI50 (DLD-1): 3.23 µM (inactive)
GI50 (DMS-114): 9.86 µM (inactive)
GI50 (DMS-273): 6.32 µM (inactive)
GI50 (EKVX): 6.3 µM (inactive)
GI50 (HCC 2998): 6 µM (inactive)
GI50 (HCT-116): 3.85 µM (inactive)
GI50 (HCT-15): 3.1 µM
GI50 (HL-60): 1.75 µM (inactive)
GI50 (HOP-18): 20.9 µM (inactive)
GI50 (HOP-62): 12.3 µM (inactive)
GI50 (HOP-92): 7.93 µM (inactive)
GI50 (HT-29): 5.47 µM (inactive)
GI50 (IGROV-1): 11.4 µM (inactive)
GI50 (K562): 4.07 µM (inactive)
GI50 (KM-20L2): 7.18 µM (inactive)
GI50 (KM12): 4.66 µM (inactive)
GI50 (LOX IMVI): 4.59 µM (inactive)
GI50 (LXFL 529): 2.79 µM (inactive)
GI50 (M14): 4.93 µM (inactive)
GI50 (M19-MEL): 3.67 µM (inactive)
GI50 (MOLT-4): 3.26 µM (inactive)
GI50 (Malme-3M): 11.6 µM (inactive)
GI50 (NCI-H226): 17.1 µM (inactive)
GI50 (NCI-H23): 5.2 µM (inactive)
GI50 (NCI-H460): 6.3 µM (inactive)
GI50 (NCI-H522): 9.04 µM (inactive)
GI50 (OVCAR-3): 5.35 µM (inactive)
GI50 (OVCAR-4): 5.98 µM (inactive)
GI50 (OVCAR-5): 37.2 µM (inactive)
GI50 (OVCAR-8): 4.63 µM (inactive)
GI50 (RPMI-8226): 2.24 µM (inactive)
GI50 (SF-268): 5.85 µM (inactive)
GI50 (SF-295): 10.6 µM (inactive)
GI50 (SF-539): 10.2 µM (inactive)
GI50 (SK-MEL-28): 9.77 µM (inactive)
GI50 (SK-MEL-2): 4.44 µM (inactive)
GI50 (SK-MEL-5): 2.32 µM (inactive)
GI50 (SK-OV-3): 15.3 µM (inactive)
GI50 (SN12C): 5.18 µM (inactive)
GI50 (SNB-19): 6.62 µM (inactive)
GI50 (SNB-75): 13.6 µM (inactive)
GI50 (SNB-78): 12.9 µM (inactive)
GI50 (SR): 1.82 µM (inactive)
GI50 (SW-620): 3.12 µM (inactive)
GI50 (TK-10): 15 µM (inactive)
GI50 (U-251): 2.28 µM (inactive)
GI50 (UACC-257): 4.91 µM (inactive)
GI50 (UACC-62): 3.55 µM (inactive)
GI50 (UO-31): 5.5 µM (inactive)
GI50 (XF498): 11.4 µM (inactive)

COc1cc([C@H]2Oc3cc(O)c4c(=O)cc(-c5ccc(O)cc5)oc4c3O[C@@H]2CO)ccc1O
GI50 (786-0): 15.3 µM (inactive)
GI50 (A498): 16.8 µM (inactive)
GI50 (ACHN): 12.9 µM (inactive)
GI50 (CAKI-1): 15.1 µM (inactive)
GI50 (CCRF-CEM): 13.6 µM (inactive)
GI50 (COLO 205): 15.2 µM (inactive)
GI50 (DLD-1): 15.3 µM (inactive)
GI50 (DMS-114): 15.9 µM (inactive)
GI50 (DMS-273): 14.2 µM (inactive)
GI50 (HCC 2998): 15 µM (inactive)
GI50 (HCT-116): 13.5 µM (inactive)
GI50 (HL-60): 18.8 µM (inactive)
GI50 (HOP-62): 14.5 µM (inactive)
GI50 (HOP-92): 25.5 µM (inactive)
GI50 (IGROV-1): 19.7 µM (inactive)
GI50 (K562): 23.4 µM (inactive)
GI50 (LXFL 529): 15.1 µM (inactive)
GI50 (M14): 16.8 µM (inactive)
GI50 (M19-MEL): 17.7 µM (inactive)
GI50 (MOLT-4): 18.7 µM (inactive)
GI50 (Malme-3M): 18.8 µM (inactive)
GI50 (NCI-H226): 18.5 µM (inactive)
GI50 (NCI-H23): 14.6 µM (inactive)
GI50 (NCI-H460): 4.54 µM (inactive)
GI50 (NCI-H522): 4.76 µM (inactive)
GI50 (OVCAR-4): 20.1 µM (inactive)
GI50 (RPMI-8226): 16.1 µM (inactive)
GI50 (RXF 631): 10.6 µM (inactive)
GI50 (SF-268): 2.28 µM (inactive)
GI50 (SF-539): > 10 µM (inactive)
GI50 (SK-MEL-28): 14.5 µM (inactive)
GI50 (SK-MEL-2): 16.1 µM (inactive)
GI50 (SK-OV-3): 14.6 µM (inactive)
GI50 (SN12C): > 10 µM (inactive)
GI50 (SNB-75): 5.45 µM (inactive)
GI50 (SNB-78): 14.6 µM (inactive)
GI50 (SR): 15.3 µM (inactive)
GI50 (UACC-62): 11.1 µM (inactive)
GI50 (UO-31): 12.6 µM (inactive)

[N-]=[N+]=Nc1ncnc2c1sc(=S)n2-c1ccccc1
GI50 (786-0): > 100 µM (inactive)
GI50 (A498): 78.9 µM (inactive)
GI50 (A549): > 100 µM (inactive)
GI50 (ACHN): > 100 µM (inactive)
GI50 (CAKI-1): > 100 µM (inactive)
GI50 (CCRF-CEM): > 100 µM (inactive)
GI50 (COLO 205): > 100 µM (inactive)
GI50 (DLD-1): > 100 µM (inactive)
GI50 (DMS-114): > 100 µM (inactive)
GI50 (DMS-273): > 100 µM (inactive)
GI50 (EKVX): > 100 µM (inactive)
GI50 (HCC 2998): > 100 µM (inactive)
GI50 (HCT-116): > 100 µM (inactive)
GI50 (HCT-15): > 100 µM
GI50 (HL-60): 84.9 µM (inactive)
GI50 (HOP-18): > 100 µM (inactive)
GI50 (HOP-62): 21.6 µM (inactive)
GI50 (HOP-92): > 100 µM (inactive)
GI50 (HT-29): > 100 µM (inactive)
GI50 (IGROV-1): > 100 µM (inactive)
GI50 (K562): > 100 µM (inactive)
GI50 (KM-20L2): > 100 µM (inactive)
GI50 (KM12): > 100 µM (inactive)
GI50 (LOX IMVI): > 100 µM (inactive)
GI50 (LXFL 529): > 100 µM (inactive)
GI50 (M14): > 100 µM (inactive)
GI50 (M19-MEL): > 100 µM (inactive)
GI50 (MOLT-4): > 100 µM (inactive)
GI50 (Malme-3M): > 100 µM (inactive)
GI50 (NCI-H226): > 100 µM (inactive)
GI50 (NCI-H23): > 100 µM (inactive)
GI50 (NCI-H460): > 100 µM (inactive)
GI50 (NCI-H522): > 100 µM (inactive)
GI50 (OVCAR-3): > 100 µM (inactive)
GI50 (OVCAR-4): > 100 µM (inactive)
GI50 (OVCAR-5): > 100 µM (inactive)
GI50 (OVCAR-8): > 100 µM (inactive)
GI50 (RPMI-8226): > 100 µM (inactive)
GI50 (RXF 393): > 100 µM (inactive)
GI50 (SF-268): > 100 µM (inactive)
GI50 (SF-295): > 100 µM (inactive)
GI50 (SF-539): > 100 µM (inactive)
GI50 (SK-MEL-28): > 100 µM (inactive)
GI50 (SK-MEL-2): > 100 µM (inactive)
GI50 (SK-MEL-5): > 100 µM (inactive)
GI50 (SK-OV-3): > 100 µM (inactive)
GI50 (SN12C): > 100 µM (inactive)
GI50 (SNB-19): > 100 µM (inactive)
GI50 (SNB-75): > 100 µM (inactive)
GI50 (SNB-78): > 100 µM (inactive)
GI50 (SR): > 100 µM (inactive)
GI50 (SW-620): > 100 µM (inactive)
GI50 (TK-10): > 100 µM (inactive)
GI50 (U-251): > 100 µM (inactive)
GI50 (UACC-257): > 100 µM (inactive)
GI50 (UACC-62): > 100 µM (inactive)
GI50 (UO-31): > 100 µM (inactive)
GI50 (XF498): > 100 µM (inactive)
